Paper PMC5823406, “Vehicle development, pharmacokinetics and toxicity of the anti-invasive agent 4-fluoro-3’,4’,5’-trimethoxychalcone in rodents” (PLoS ONE, 2018)
“And” between values parts separate entries of the source, which are not always exact repeats. Equal values may be shown once. “Also recorded” adds a separate entry of the source.

Key:
[1] = system: SK-OV-3; parameters: method as in PMID 26204510; conditions: read-out: IC50 in Matrigel invasion assay (SK-OV-3); cited from earlier work
[2] = Metabolite profiling in whole blood; type: in vitro ADME; conditions: rat whole blood
Protocol: C. Stability and metabolism
For details on ADME experiments not included underneath , please consult ref. [1].
C.A. Whole blood stability
Column: Kinetex XB-C18 column, 2.6 µm (150 x2.1 mm)
Mobile phase A: H2O + 0.1% v/v Formic Acid
Mobile phase B: MeCN + 0.1% v/v Formic Acid
Autosampler syringe volume: 100 µL
Weak wash: MeOH:H2O 1:9 v/v
Strong wash: MeOH:H2O 95:5 v/v
Table K. Gradient program.
Mass spectrometric conditions
Model: AB Sciex API5500 QTrap
Mode: Multiple ion monitoring (MIM)
Table L. MIM (parent to parent transitions).
The areas and percentages for the parent and metabolites have been calculated using MIM data where parent to parent transitions have been used, and assume that each metabolite has the same point of ionisation and the sensitivity of the metabolite has not been affected by the biotransformation.

[3] = LogD, partition coefficient n-octanol/PBS; type: physicochemical; conditions: pH 7.4, 100 μM
Text: (§1) Table 3 In vitro physicochemical, stability and metabolism data. | column: Value

[4] = Whole blood C16 determination after 7-day dosing via medicated gels; type: in vivo, mouse; conditions: for Blood concentration of C16: Average±SD
Protocol: On the evening of day 6, blood was collected via the tail vein for the 0, 100 and 300 mg/kg C16 cohorts for determination of the whole blood C16 level. On the morning of day 7, mice of the 0, 100 and 300 mg/kg C16 cohorts were anesthetized by IP injection with 250 mg/kg of Avertin (20 mL/kg, preparation see Section E in S1 File). Blood for C16 determination and hematological and biochemical analysis was collected via cardiac exsanguination (600 μL to 1 mL). Detailed analysis protocols are described below. Afterward, animals were sacrificed by cervical dislocation.
Blood samples (25 μL) were collected via the tail vein or cardiac puncture (last time point). Blood was pipetted into a tube with 25 μL heparinized water (1 μL of sodium heparin (1000 units/mL) + 24 μL water) within 30 seconds of collection. The sample was pipetted up and down five times, immediately frozen on dry ice, and stored at -60°C to -80°C until analysis.
E.C. Whole blood C16 levels
Table AA. Individual blood concentration (ng/mL) for C16 in cohorts on medicated gel .
Cohort and animal Evening Morning
BLOQ: below the limit of quantitation (0.5 ng/mL). Samples that were below the limit of quantification were not used in the calculation of
Table BB. […]

[5] = Solubility in vehicles, visual determination; type: physicochemical
Protocol: C16 has low aqueous solubility, which limits the choice of preclinical formulations for in vivo studies. In this work, thirteen vehicles were evaluated for their applicability in single-dose studies (Table 1). For commonly used systems (entries a-e) visual determination of solubility was conducted, while for the more complex systems solubility was assessed by laser nephelometry.

[6] = target: CYP 3A4 (Homo sapiens, UniProt P08684); experiment: CYP inhibition 3A4 (BFC substrate); type: in vitro ADME; conditions: 10 μM
Text: as §1

CYP 3A4, sequence (P08684 whole entry): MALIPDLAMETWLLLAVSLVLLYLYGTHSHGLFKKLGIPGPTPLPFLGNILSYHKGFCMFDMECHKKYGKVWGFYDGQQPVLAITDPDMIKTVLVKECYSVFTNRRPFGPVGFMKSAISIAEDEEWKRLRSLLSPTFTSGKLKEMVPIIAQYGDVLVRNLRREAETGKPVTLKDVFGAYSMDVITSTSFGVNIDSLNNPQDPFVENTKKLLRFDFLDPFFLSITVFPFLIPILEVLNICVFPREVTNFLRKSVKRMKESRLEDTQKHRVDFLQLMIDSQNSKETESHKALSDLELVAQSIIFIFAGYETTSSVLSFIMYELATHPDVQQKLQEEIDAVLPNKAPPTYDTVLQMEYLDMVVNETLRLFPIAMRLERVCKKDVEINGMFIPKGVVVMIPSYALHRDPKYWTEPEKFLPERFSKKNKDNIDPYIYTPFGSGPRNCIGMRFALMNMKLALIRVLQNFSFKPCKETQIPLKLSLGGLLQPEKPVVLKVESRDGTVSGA

In the case of `COc1cc(C(=O)/C=C/c2ccc(F)cc2)cc(OC)c1OC` [C16, 4-fluoro-3’,4’,5’-trimethoxychalcone], the IC50 [1] is given as less than 100 nM, the “Area in sample (%)” value ([2]; 0 min control) is given as 62.4% and the “Area in sample (%)” value ([2]; 15 min sample) is given as 52.2%. For the same compound, the LogD [3] was 3.85, the “Blood concentration of C16” value ([4]; 100 mg/kg cohort on medicated gel, Evening (day 6)) was 8.48 ± 2.28 ng/mL and the “Individual blood concentration of C16” value ([4]; 100 mg/kg cohort on medicated gel, Evening, animals 2-1 to 2-4) was 8.39 ng/mL and 5.39 ng/mL and 9.33 ng/mL and 10.8 ng/mL. For the same compound, the “Blood concentration of C16” value ([4]; 100 mg/kg cohort on medicated gel, Morning (day 7)) was 31.2 ± 26.0 ng/mL, the “Individual blood concentration of C16” value ([4]; 100 mg/kg cohort on medicated gel, Morning, animals 2-1 to 2-4) was 11.5 ng/mL and 6.14 ng/mL and 56.2 ng/mL and 50.8 ng/mL and the “Blood concentration of C16” value ([4]; 300 mg/kg cohort on medicated gel, Evening (day 6)) was 7.63 ± 5.07 ng/mL. For the same compound, the “Individual blood concentration of C16” value ([4]; 300 mg/kg cohort on medicated gel, Evening, animals 3-1, 3-3, 3-4) was 3.51 ng/mL and 13.3 ng/mL and 6.09 ng/mL, the “Blood concentration of C16” value ([4]; 300 mg/kg cohort on medicated gel, Morning (day 7)) was 38.1 ± 27.8 ng/mL and the “Individual blood concentration of C16” value ([4]; 300 mg/kg cohort on medicated gel, Morning, animals 3-1 to 3-4) was 30.1 ng/mL and 21.6 ng/mL and 79.3 ng/mL and 21.3 ng/mL. For the same compound, the “Whole blood C16 concentrations versus projected EC50” value ([4]; medicated gel, day 6 evening and day 7 morning) was “above its projected EC50”, the “Solubility of C16 in vehicle: Result” value ([5]; 10% (DMSO / Cremophor EL 1:1) / 90% Milli-Q water, 2 mg/mL) was “Insoluble ^a” and the “Solubility of C16 in vehicle: Result” value ([5]; 10% DMSO in normal saline, 1 mg/mL) was “Insoluble ^a”. The “Solubility of C16 in vehicle: Result” value ([5]; 20% DMSO / 10% (DMSO / Cremophor EL 1:1) / 70% Milli-Q water, 2 mg/mL) was “Soluble ^a”, the “Solubility of C16 in vehicle: Result” value ([5]; 50% DMSO in normal saline, 1 mg/mL) was “Insoluble ^a” and the “Solubility of C16 in vehicle: Result” value ([5]; DMSO, 10 mg/mL) was “highly soluble; also recorded: Soluble ^a”. The “CYP inhibition 3A4 (BFC substrate)” value [6] was 27 % inhibition of control.
